Test results from publication PMC6591177, “Small Molecule IL-36γ Antagonist as a Novel Therapeutic Approach for Plaque Psoriasis” (Scientific Reports, 2019).
“Also recorded” adds a separate entry of the source.

Experiments:
[1] = test system: human IL-36γ evoked CXCL1 release from Human HaCaT cells; experiment: human IL-36γ evoked CXCL1 release, human HaCaT cells; type: cell-based; conditions: ± S.D.
Experimental: The immortalized human keratinocyte cell line HaCaT and mouse fibroblast NIH-3T3 cell line were maintained in culture in DMEM with 10% fetal bovine serum and 1% penicillin/streptomycin added (Sigma). Cells were seeded in 96-well tissue culture plates (Corning) at 25,000 cells per well and allowed to adhere and recover overnight at 37 °C in an incubator. Cells were rinsed with PBS (Sigma) and treated with cytokines diluted in 200 μL/well of the medium (DMEM with 0.5% FBS and 1% penicillin/streptomycin) as indicated. In inhibition mode, the agonist concentration used was at the EC80 for chemokine production and the cells were pre-treated with inhibitors for 30 min prior to adding the agonist. After 24 h of treatment, supernatants were collected and IL-8 and CXCL1[28] levels were assessed using a custom immunoassay (Meso Scale Discovery). EC50/IC50 values were estimated from a four-parameter logistic fit using Prism software (GraphPad).

[2] = biological target: T1, mouse IL-36γ (Mus musculus, UniProt Q8R460); experiment: Affinity for mouse IL-36γ; type: binding
T1 sequence (Q8R460 13-164): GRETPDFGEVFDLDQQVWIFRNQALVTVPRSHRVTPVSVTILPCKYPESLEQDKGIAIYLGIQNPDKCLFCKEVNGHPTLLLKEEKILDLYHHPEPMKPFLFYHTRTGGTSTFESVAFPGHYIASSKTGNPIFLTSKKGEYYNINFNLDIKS

[3] = biological target: T2, mouse IL-36α (Mus musculus, UniProt Q9JLA2); experiment: Cross-reactivity to mouse IL-36α; type: binding
T2 sequence (Q9JLA2 8-160): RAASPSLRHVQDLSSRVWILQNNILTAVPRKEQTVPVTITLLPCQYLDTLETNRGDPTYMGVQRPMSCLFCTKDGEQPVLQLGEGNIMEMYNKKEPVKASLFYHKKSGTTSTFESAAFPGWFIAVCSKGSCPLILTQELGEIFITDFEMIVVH

[4] = biological target: T3, human IL-36γ (Homo sapiens, UniProt Q9NZH8); experiment: Thermal shift assay, human IL-36γ; type: binding; conditions: 100 μM compound; read-out: increase of melting temperature of human IL-36γ
T3 construct: His6-SUMO-human IL-36γ (18–169); His6-SUMO (N, cleaved yes); made in house; host or cells: E. coli BL21 (DE3)
T3 sequence (Q9NZH8 18-169): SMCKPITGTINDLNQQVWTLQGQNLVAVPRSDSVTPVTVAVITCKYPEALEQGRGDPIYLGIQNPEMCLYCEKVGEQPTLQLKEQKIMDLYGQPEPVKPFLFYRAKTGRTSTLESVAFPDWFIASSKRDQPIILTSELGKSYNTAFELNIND
Experimental: (§1) Thermal shift assays[30] were performed on a Roche LightCycler 480 instrument using Sypro Orange Dye (Invitrogen). Reactions consisted of 0.5–2 µM purified recombinant protein in PBS, pH 7.4, a 1/500 dilution of the stock Sypro Orange reagent, and 100 µM test compounds, resulting in a final DMSO concentration of 1%. The samples were heated from 20 °C to 95 °C at a rate of 0.25 °C per second.

[5] = Drug plasma levels / oral exposure in mice; conditions: mouse, in vivo
[6] = test system: 3D human skin equivalents; experiment: IL-36γ induced 3D skin equivalent model; type: cell-based
Experimental: Hematoxylin & eosin (H&E) staining and immunohistochemistry (IHC) were performed using a Leica ST5010 autostainer or Leica Bond RX automated immunostainer. Standardized IHC protocols were used for anti-loricrin staining (Abcam AB85679). Stained tissue slides were digitized for image analysis using a Perkin Elmer P250 whole slide digital pathology slide scanner with 20X objective and extended focus scanning parameters. For quantitative analysis, N = 3 raft samples were analyzed per condition for each stain using whole slide digital analysis software (Indica Labs HALO). Staining was normalized to the length of the raft sample analyzed.
3D skin equivalents (SOR-300-FT-CTR) comprised of human neonatal keratinocytes and fibroblasts were purchased from MatTek, equilibrated for one day in proprietary formulated media (SOR-300-FT-CTR-MM) and then treated as indicated. Treatment groups contained hIL-36γ at 300 ng/mL, 10 μM of A-552, 10 μg/mL anti-IL36R antibody, 10 μg/mL IL-36RA, or 10 μg/mL IgG isotype control either alone or in combination with hIL-36γ. Control skin equivalents were treated with media only. Skin equivalents were treated for three days, with media collected for cytokine release studies at day two and replaced with fresh treatment media. After three days the skin equivalents were either placed in 10% neutral buffered formalin solution (for histology) or frozen (for qRT-PCR).
To measure IL-6, IL-8 and CXCL1 release from 3D skin equivalents diluted sample media collected at day 2 of the treatment (see above) was used in conjunction with V-PLEX multiplex immunoassay for IL-6 and IL-8 and a U-PLEX immunoassay for CXCL1 (Meso Scale Discovery) according to the manufacturers’ protocols.
RNA from frozen 3D skin equivalents was isolated using miRNeasy Mini Kit (Qiagen) per the manufacturers’ instructions. For qRT-PCR determination a CFX384 Real-Time System C1000 Touch Thermocycler was used. […] Each transcript measured was presented as a fold change compared to control using the ∆∆CT method as RNA fold increase where RPLP0 was used as a housekeeping gene.

[7] = biological target: T4, human IL-36β (Homo sapiens, UniProt Q9NZH7); experiment: Affinity for human IL-36β; type: binding
T4 sequence (Q9NZH7 5-164): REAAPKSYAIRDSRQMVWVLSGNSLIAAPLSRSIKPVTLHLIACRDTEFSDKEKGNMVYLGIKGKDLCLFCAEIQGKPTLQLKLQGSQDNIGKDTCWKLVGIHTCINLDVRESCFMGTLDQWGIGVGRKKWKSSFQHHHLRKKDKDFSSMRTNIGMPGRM

[8] = biological target: T5, human IL-36α (Homo sapiens, UniProt Q9UHA7); experiment: Thermal shift assay / affinity, human IL-36α; type: binding; conditions: thermal shift assay at 100 μM (Supplementary Fig. 4)
T5 construct: using recombinant truncated proteins
T5 sequence (Q9UHA7 6-158): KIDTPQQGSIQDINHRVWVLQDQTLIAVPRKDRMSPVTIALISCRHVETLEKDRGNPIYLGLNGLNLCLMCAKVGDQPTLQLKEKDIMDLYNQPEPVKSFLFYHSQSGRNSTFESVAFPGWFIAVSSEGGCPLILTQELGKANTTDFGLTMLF
Experimental: as §1

COC(c1ccccc1)(c1ccccc1)[C@H](Oc1nc(C)cc(-c2ccc(C)c(N)c2)n1)C(=O)O [Compound A-552]
Ki [1]: 31 ± 22 nM | affinity for mouse IL-36γ [2]: does not show affinity | cross-reactivity to mouse IL-36α [3]: lack of species cross-reactivity | ΔTm at 100 µM [4]: 6.1 °C | oral bioavailability [5]: orally bioavailable | effect on hIL-36γ induced changes in morphology, gene expression and cytokine production ([6]; 0.3 μg/mL hIL-36γ, 10 μM A-552, 10 μg/mL antibody or IL-36Ra, three days): attenuated | effect on 3D human skin equivalents when treated alone ([6]; without hIL-36γ): no appreciable effect | affinity for human IL-36β [7]: does not show affinity | binding / affinity to human IL-36α [8]: do not bind; also recorded: does not show affinity
